From patent US8598120B2 (Amylin Pharmaceuticals, LLC, priority 2004, dated 2013) come the findings set out here.

This assay is described as follows: Food intake assay in overnight fasted mice. As to conditions: 25 nmol/kg intraperitoneal. Format: in vivo. How it is done:
Female NIH/Swiss mice (8-14 weeks old) were group housed with a 12:12 hour light:dark cycle. Water and a standard pelleted mouse chow diet are available ad libitum, except as noted. Animals are fasted starting at approximately 1500 hrs, 1 day prior to experiment.
The effects of treatment on food intake are expressed as % change relative to control.

* marks the point of attachment. Pentanoyl(4-Me) = CC(C)CCC(=O)*

For “KCNTATCVLGRLAAFLHRLQTYPRTNTGSNTY [Compound 96]”, the “cumulative food intake compared to vehicle, 30 min” value is −49%; the “cumulative food intake compared to vehicle, 60 min” value was −38%; the “cumulative food intake compared to vehicle, 120 min” value was −19%; the “cumulative food intake compared to vehicle, 180 min” value is recorded as −23%.
For the substance “CSNASTCVLGRLSQELHRLQTYPRTNTGSNTY [Compound 21]”, the “cumulative food intake compared to vehicle, 30 min” value amounted to 9%; the “cumulative food intake compared to vehicle, 60 min” value is −5%; the “cumulative food intake compared to vehicle, 120 min” value is on record as −18%; the “cumulative food intake compared to vehicle, 180 min” value is −18%.
Consider “isocaproyl-STAVLGRLSQELHRLQTYPRTNTGSNTY ({Pentanoyl(4-Me)}-STAVLGRLSQELHRLQTYPRTNTGSNTY-NH2; SMILES CC(C)CCC(=O)N[C@@H](CO)C(=O)N[C@H](C(=O)N[C@@H](C)C(=O)N[C@H](C(=O)N[C@@H](CC(C)C)C(=O)NCC(=O)N[C@@H](CCCNC(=N)N)C(=O)N[C@@H](CC(C)C)C(=O)N[C@@H](CO)C(=O)N[C@@H](CCC(N)=O)C(=O)N[C@@H](CCC(=O)O)C(=O)N[C@@H](CC(C)C)C(=O)N[C@@H](Cc1c[nH]cn1)C(=O)N[C@@H](CCCNC(=N)N)C(=O)N[C@@H](CC(C)C)C(=O)N[C@@H](CCC(N)=O)C(=O)N[C@H](C(=O)N[C@@H](Cc1ccc(O)cc1)C(=O)N1CCC[C@H]1C(=O)N[C@@H](CCCNC(=N)N)C(=O)N[C@H](C(=O)N[C@@H](CC(N)=O)C(=O)N[C@H](C(=O)NCC(=O)N[C@@H](CO)C(=O)N[C@@H](CC(N)=O)C(=O)N[C@H](C(=O)N[C@@H](Cc1ccc(O)cc1)C(N)=O)[C@@H](C)O)[C@@H](C)O)[C@@H](C)O)[C@@H](C)O)C(C)C)[C@@H](C)O) [Compound 20]”, for which the “cumulative food intake compared to vehicle, 30 min” value is −9%; the “cumulative food intake compared to vehicle, 60 min” value is −21%; the “cumulative food intake compared to vehicle, 120 min” value is given as −30%; the “cumulative food intake compared to vehicle, 180 min” value is −31%.
As for “KCNTASCVLGRLSQELHRLQTYPRTNTGSNTY [Compound 36]”, the “cumulative food intake compared to vehicle, 30 min” value is −34%; the “cumulative food intake compared to vehicle, 60 min” value is −22%; the “cumulative food intake compared to vehicle, 120 min” value is −24%; the “cumulative food intake compared to vehicle, 180 min” value was −25%.
In the case of “KCNTATCVLGRLADFLHRFQTFPRTNTGSNTY [Compound 107]”, the “cumulative food intake compared to vehicle, 30 min” value was −84%; the “cumulative food intake compared to vehicle, 60 min” value is given as −78%; the “cumulative food intake compared to vehicle, 120 min” value is −47%.
As to “KCNTATCVLGRLAQFLHRLQTYPRTNTGSNTY [Compound 106]”, the “cumulative food intake compared to vehicle, 30 min” value is −58%; the “cumulative food intake compared to vehicle, 60 min” value is recorded as −54%; the “cumulative food intake compared to vehicle, 120 min” value is −39%.
In the case of “KCNTATCVLGRLADALHRLQTYPRTNTGSNTY [Compound 95]”, the “cumulative food intake compared to vehicle, 30 min” value is −81%; the “cumulative food intake compared to vehicle, 60 min” value is listed as −69%; the “cumulative food intake compared to vehicle, 120 min” value is reported as −34%; the “cumulative food intake compared to vehicle, 180 min” value is recorded as −31%.
Regarding “KCNTATCVLGRLTEFLHRLQTYPRTNTGSNTY [Compound 103]”, the “cumulative food intake compared to vehicle, 30 min” value was −50%; the “cumulative food intake compared to vehicle, 60 min” value was −44%; the “cumulative food intake compared to vehicle, 120 min” value was −30%.
As to “KCNTATCVLGRLFDFLHRLQTYPRTNTGSNTY [Compound 112]”, the “cumulative food intake compared to vehicle, 30 min” value is −62%; the “cumulative food intake compared to vehicle, 60 min” value was −65%; the “cumulative food intake compared to vehicle, 120 min” value is recorded as −50%.
With “KCNTATCVLGRLNEYLHRLQTYPRTNTGSNTY [Compound 101]”, the “cumulative food intake compared to vehicle, 30 min” value is reported as −52%; the “cumulative food intake compared to vehicle, 60 min” value was −48%; the “cumulative food intake compared to vehicle, 120 min” value is −35%.
Regarding “KCDTATCVTHRLAGLLSRSQTYPRTNTGSNTY [Compound 94]”, the “cumulative food intake compared to vehicle, 30 min” value is listed as −62%; the “cumulative food intake compared to vehicle, 60 min” value is on record as −42%; the “cumulative food intake compared to vehicle, 120 min” value was −36%; the “cumulative food intake compared to vehicle, 180 min” value is −31%.
Turning to “KDNTATKVLGRLSQELHRLQTYPRTNTGSNTY [Compound 69]”, the “cumulative food intake compared to vehicle, 30 min” value is recorded as −29%; the “cumulative food intake compared to vehicle, 60 min” value is recorded as −31%; the “cumulative food intake compared to vehicle, 120 min” value was −45%.
On to “KCNTATCVLGRLSQELHRLQNFVPRTNTGSNTY [Compound 90]”, for which the “cumulative food intake compared to vehicle, 30 min” value was −55%; the “cumulative food intake compared to vehicle, 60 min” value is recorded as −41%; the “cumulative food intake compared to vehicle, 120 min” value is listed as −24%; the “cumulative food intake compared to vehicle, 180 min” value was −15%.
Regarding “TCDTATCVLGRLSQELHRLQTYPRTNTGSNTY [Compound 114]”, the “cumulative food intake compared to vehicle, 30 min” value is given as −17%; the “cumulative food intake compared to vehicle, 60 min” value was −20%; the “cumulative food intake compared to vehicle, 120 min” value was −25%.
For “KCNTATCVLG(homoR)LSQELH(homoR)LQTYPRTNTGSNTY [Compound 74]”, the “cumulative food intake compared to vehicle, 30 min” value is −42%; the “cumulative food intake compared to vehicle, 60 min” value is reported as −32%; the “cumulative food intake compared to vehicle, 120 min” value was −31%.
In the same order, the values of “KCNTATCVLGRLSQELHRLQTYPTNVGSEAF [Compound 85]” are 3%, −16% and −16%.
As to “CSNLSACVLGRLSQELHRLQTYPRTNTGSNTY [Compound 23]”, the “cumulative food intake compared to vehicle, 30 min” value turned out to be 8%; the “cumulative food intake compared to vehicle, 60 min” value was 0%; the “cumulative food intake compared to vehicle, 120 min” value is reported as −19%; the “cumulative food intake compared to vehicle, 180 min” value was −12%.
For the substance “KCNTATCVLGRLTDYLHRLQTYPRTNTGSNTY [Compound 105]”, the “cumulative food intake compared to vehicle, 30 min” value is recorded as −83%; the “cumulative food intake compared to vehicle, 60 min” value is on record as −82%; the “cumulative food intake compared to vehicle, 120 min” value is on record as −52%.
The corresponding values for “KCNTATCVLGKLSQELHKLQTYPRTNTGSNTY [Compound 49]” are −33%, −26% and −25%.
“KCNTATCVLGRLSQELHRLQTMPRTNTGSNTY [Compound 99]”: the “cumulative food intake compared to vehicle, 30 min” value is listed as −57%; the “cumulative food intake compared to vehicle, 60 min” value is recorded as −55%; the “cumulative food intake compared to vehicle, 120 min” value is −50%.
In the same order, the values of “KCNTATCVLGRLAAALHRLQTYPRTNTGSNTY [Compound 113]” are −79%, −86% and −55%.
Regarding “KCNTATCVLGRLSQELHRLQTLPRTNTGSNTY [Compound 11]”, the “cumulative food intake compared to vehicle, 30 min” value is −52%; the “cumulative food intake compared to vehicle, 60 min” value is reported as −47%; the “cumulative food intake compared to vehicle, 120 min” value is on record as −38%; the “cumulative food intake compared to vehicle, 180 min” value was −35%.
Consider “KCNTSTCVLGRLSQELHRLQTYPRTNTGSNTY [Compound 50]”, for which the “cumulative food intake compared to vehicle, 30 min” value is listed as −70%; the “cumulative food intake compared to vehicle, 60 min” value is given as −62%; the “cumulative food intake compared to vehicle, 120 min” value was −48%.
In the case of “KCNTATCATQRLSQELHRLQTYPRTNTGSNTY [Compound 51]”, the “cumulative food intake compared to vehicle, 30 min” value was −44%; the “cumulative food intake compared to vehicle, 60 min” value was −39%; the “cumulative food intake compared to vehicle, 120 min” value is −35%.
With “CANLSTCVLGRLSQELHRLQTYPRTNTGSNTY [Compound 19]”, the “cumulative food intake compared to vehicle, 30 min” value was −25%; the “cumulative food intake compared to vehicle, 60 min” value was −25%; the “cumulative food intake compared to vehicle, 120 min” value is −35%; the “cumulative food intake compared to vehicle, 180 min” value is recorded as −31%.
Turning to “KCNTATCVLGRLSQELHRLQTYPPTNTGSNTY [Compound 12]”, the “cumulative food intake compared to vehicle, 30 min” value is listed as −43%; the “cumulative food intake compared to vehicle, 60 min” value is reported as −39%; the “cumulative food intake compared to vehicle, 120 min” value is −37%; the “cumulative food intake compared to vehicle, 180 min” value is −32%.
With “CSALSTCVLGRLSQELHRLQTYPRTNTGSNTY [Compound 26]”, the “cumulative food intake compared to vehicle, 30 min” value is −29%; the “cumulative food intake compared to vehicle, 60 min” value was −36%; the “cumulative food intake compared to vehicle, 120 min” value is listed as −47%.
The corresponding values for “KCNTATCVLGRLADFLHRFHTFPRTNTGSNTY [Compound 108]” are −70%, −66% and −38%.
On to “KCNTATCVLGRLANFLHRLQTYPRTNTGSNTY [Compound 14]”, for which the “cumulative food intake compared to vehicle, 30 min” value was −52%; the “cumulative food intake compared to vehicle, 60 min” value is on record as −36%; the “cumulative food intake compared to vehicle, 120 min” value is reported as −28%; the “cumulative food intake compared to vehicle, 180 min” value is −33%.
Consider “KCNTSTCATQRLANELVRLQTYPRTNVGSNTY [Compound 53]”, for which the “cumulative food intake compared to vehicle, 30 min” value is reported as −92%; the “cumulative food intake compared to vehicle, 60 min” value is −89%; the “cumulative food intake compared to vehicle, 120 min” value is −36%.
For the substance “KCNAATCVLGRLSQELHRLQTYPRTNTGSNTY [Compound 17]”, the “cumulative food intake compared to vehicle, 30 min” value is −42%; the “cumulative food intake compared to vehicle, 60 min” value is recorded as −30%; the “cumulative food intake compared to vehicle, 120 min” value is reported as −30%; the “cumulative food intake compared to vehicle, 180 min” value is −25%.
Turning to “SCNTATCVLGRLADFLHRLQTYPRTNTGSNTY [Compound 97]”, the “cumulative food intake compared to vehicle, 30 min” value is −78%; the “cumulative food intake compared to vehicle, 60 min” value is −76%; the “cumulative food intake compared to vehicle, 120 min” value is recorded as −60%; the “cumulative food intake compared to vehicle, 180 min” value is −40%.
